Measured values taken from patent publication US10004718B2, “Erythropoietin expression promoter” (TOHOKU UNIVERSITY, priority 2012, dated 2018).

Legend:
[1] = test system: mRNA expression of the erythropoietin gene; assay: Quantitative PCR of erythropoietin mRNA in Hep3B cells; assay type: cell-based, human; details: compound 10 μM, 20% O2, GAPDH internal standard
Protocol: Of the 5 types of compounds confirmed in Example 4 to be effective for promoting the transcriptional activity of the erythropoietin gene promoter, 4 types of compounds (compounds #2, 4, 5, and 21) were selected. From Hep3B cells cultured in RPMI1640 common medium 1 supplemented with each of these 4 types of compounds at a concentration of 10 μM, total RNA was extracted using TriPure Isolation Reagent (manufactured by F. Hoffmann La Roche AG) in a 6-well cell culture plate. Hep3B cells cultured in the absence of the compound (DMSO added) (“20% O2/DMSO” of FIG. 4) were used as a negative control. Hep3B cells cultured in the presence of a GATA-specific inhibitor (K7174 [10 μM]) (“20% O2/K7174” of FIG. 4) and Hep3B cells cultured under hypoxia (1% O2) conditions and in the absence of the compound (DMSO added [1%]) (“1% O2/DMSO” of FIG. 4) were used as positive controls.
The extracted RNA was used as a template to synthesize cDNA using SuperScript III RTS First-strand kit (manufactured by Invitrogen Corp.). Then, the expression of the erythropoietin mRNA was measured by quantitative PCR with GAPDH as an internal standard. The quantitative PCR was carried out using TaqMan® Gene Expression Assays (using GAPDH; Assay ID: Rn99999916_s1, and human erythropoietin; Assay ID: Hs00171267_ml TaqMan® probes [manufactured by Applied Biosystems Inc.]) and Step One Plus Real-Time PCR System (manufactured by Applied Biosystems Inc.).

[2] = test system: erythropoietin; assay: Erythropoietin production in vivo in mice, oral administration for 7 days; parameters: species or system mouse; details: 7 consecutive days, plasma 24 hours after final administration, vs corn oil, DMSO+corn oil or no administration
Protocol: A mixed solution (200 μl) of each of 4 types of compounds (compounds #4, 5, 21, and 35) (10 mg/100 μl of DMSO) (10 μl) and corn oil (190 μl) was prepared. This mixed solution (200 μl) was orally administered to each mouse (C57BL/6N 8 W, male, 21-25 g) between 15:00 to 18:00 every day using a sonde. This administration was carried out for 7 consecutive days. Mice orally given corn oil or DMSO and corn oil as well as non-administered mice were used as controls.
24 hours after the final administration, each mouse was cervically dislocated, and 500 μl of blood was collected from the heart. Then, an anticoagulant (10 μl of heparin) was added thereto, and the resulting blood was centrifuged (12000 rpm×20 min, 4° C.) to isolate plasma. The plasma concentration […] of erythropoietin was measured using a kit (Quantikine Mouse/Rat Epo Immunoassay, manufactured by R&D Systems, Inc.).

[3] = test system: Leigh cells; assay: Cell death caused by oxidative stress (BSO) in Leigh syndrome patient fibroblasts; assay type: cell-based, human; details: compound 10 μM, 4 days after BSO treatment
Protocol: In Examples 2 to 7 and Reference Example 1 below, an erythropoietin-producing human hepatocellular carcinoma cell Hep3B (obtained from ATCC [American Type Culture Collection]) was cultured and maintained under conditions of 5% CO2/20% O2 and 37° C. in an RPMI1640 (manufactured by Life Technologies, Inc./GIBCO) medium containing 100 U/mL penicillin (manufactured by Life Technologies, Inc./GIBCO), 100 μg/mL streptomycin (manufactured by Life Technologies, Inc./GIBCO), and 10% fetal bovine serum (FBS) (manufactured by Life Technologies, Inc./GIBCO) (hereinafter, referred to as “RPMI1640 common medium 1”). In Example 15 below, Leigh syndrome patients were subjected to skin biopsy to obtain skin fibroblast cells, which were then primarily cultured under conditions of 5% CO2/20% O2 and 37° C. in a DMEM low glucose (manufactured by Life Technologies, Inc./GIBCO) medium containing 100 U/mL penicillin (manufactured by Life Technologies, Inc./GIBCO), 100 μg/mL streptomycin (manufactured by Life Technologies, Inc./GIBCO), and 1% FBS (manufactured by Life Technologies, Inc./GIBCO) (hereinafter, referred to as “DMEM low glucose common medium”) to isolate cells (Leigh cells). In Example 13 below, a human kidney-derived cell line HK-2 (obtained from ATCC) was cultured and maintained under conditions of 5% CO2/20% O2 and 37° C. in a DMEM/F12 (manufactured by Life Technologies, Inc./GIBCO) medium containing 100 U/mL penicillin (manufactured by Life Technologies, Inc./GIBCO), 100 μg/mL streptomycin (manufactured by Life Technologies, Inc./GIBCO), and 10% fetal bovine serum (manufactured by Life Technologies, Inc./GIBCO) (hereinafter, referred to as “DMEM/F12 common medium”). In Example 14 below, a rat islet of Langerhans-derived cell line ISN-1e (kindly provided by Hisamitsu Ishihara, Nihon University School of Medicine) was cultured and maintained under conditions of 5% CO2/20% O2 and 37° C. in an RPMI1640 (manufactured by Life Technologies, Inc./GIBCO) medium containing 10 mM HEPES (manufactured by Sigma-Aldrich Corp.), 2 mM glutamine (manufactured by Sigma-Aldrich Corp.), 50 μM β-mercaptoethanol (manufactured by Sigma-Aldrich Corp.), 100 U/mL penicillin (manufactured by Life Technologies, Inc./GIBCO), 100 μg/mL streptomycin (manufactured by Life Technologies, Inc./GIBCO), and 10% FBS (manufactured by Life Technologies, Inc./GIBCO) (hereinafter, referred to as “RPMI1640 common medium 2”).
The Leigh cells were seeded at 4×10^4 cells/well to a 24-well cell culture plate and then cultured for 24 hours. The glutathione synthesis inhibitor BSO (L-buthionine sulphoximine) (manufactured by Sigma-Aldrich Corp.) was mixed at […] into a medium. After culture for 24 hours in the presence of BSO, each of 5 types of compounds (compounds #2, 4, 5, 21, and 35) was mixed at 10 μM into the medium. After culture for 4 days in the presence of these 5 types of compounds, the number of live cells was measured using Cell Counting Kit-8 (manufactured by Dojindo Laboratories) to calculate the survival rate of the cells (“BSO+#2”, “BSO+#4”, “BSO+#5”, “BSO+#21”, and “BSO+#35” of FIG. 17). […]

## O=C(CC(C(=O)O)c1c[nH]c2ccccc12)c1ccc(F)cc1F (stereo not drawn) [compound #5, 4-(2,4-Difluorophenyl)-2-(1H-indol-3-yl)-4-oxo-butanoic acid]
[1]
  mRNA expression level of the erythropoietin gene: increase the mRNA expression level
[2]
  amount of erythropoietin in the mouse blood: increased
[3]
  cell death of the Leigh cells by BSO: efficiently suppress the cell death

## O=C(O)C(CCCC(F)(F)C(F)(F)F)c1c[nH]c2ccccc12 (stereo not drawn) [compound #21, α-(4,4,5,5,5-Pentafluoro-1-pentyl)-3-indoleacetic acid]
[1]
  mRNA expression level of the erythropoietin gene: increase the mRNA expression level
[2]
  amount of erythropoietin in the mouse blood: increased
[3]
  cell death of the Leigh cells by BSO: efficiently suppress the cell death

## O=C(CC(C(=O)O)c1c[nH]c2ccccc12)c1ccc(F)cc1 (stereo not drawn) [compound #4, 4-(4-Fluorophenyl)-2-(1H-indol-3-yl)-4-oxo-butanoic acid]
[1]
  mRNA expression level of the erythropoietin gene: increase the mRNA expression level
[2]
  amount of erythropoietin in the mouse blood: increased
[3]
  cell death of the Leigh cells by BSO: efficiently suppress the cell death
